From the CheMixHub viscosity set

Assay: xn = mol fraction of the nth substance listed

CC[N+](=O)[O-] + CO
viscosity [mPa·s], 101.33 kPa
Settings | 293.15 K | 303.15 K | 313.15 K
x2 = 0.0501 | 0.657 | 0.586 | 0.527
x2 = 0.0999 | 0.634 | 0.565 | 0.508
x2 = 0.1503 | 0.617 | 0.549 | 0.493
x2 = 0.2 | 0.603 | 0.536 | 0.48
x2 = 0.25 | 0.593 | 0.526 | 0.471
x2 = 0.3 | 0.584 | 0.517 | 0.462
x2 = 0.3501 | 0.576 | 0.51 | 0.455
x2 = 0.4 | 0.57 | 0.504 | 0.448
x2 = 0.45 | 0.564 | 0.498 | 0.442
x2 = 0.5 | 0.559 | 0.493 | 0.438
x2 = 0.55 | 0.556 | 0.489 | 0.433
x2 = 0.6 | 0.553 | 0.487 | 0.43
x2 = 0.65 | 0.552 | 0.485 | 0.428
x2 = 0.6999 | 0.552 | 0.486 | 0.428
x2 = 0.75 | 0.555 | 0.486 | 0.427
x2 = 0.8 | 0.558 | 0.487 | 0.428
x2 = 0.85 | 0.562 | 0.49 | 0.43
x2 = 0.9 | 0.567 | 0.495 | 0.434
x2 = 0.95 | 0.576 | 0.501 | 0.437

CCCCN + CCCCCO
viscosity [mPa·s], 101.33 kPa
Settings | 303.15 K | 313.15 K | 323.15 K
x1 = 0.097 | 2.5 | 2.042 | –
x1 = 0.102 | 2.52 | 1.956 | 1.551
x1 = 0.1887 | 2.182 | 1.761 | –
x1 = 0.2002 | 2.086 | 1.639 | 1.322
x1 = 0.2883 | 1.842 | 1.49 | –
x1 = 0.2994 | 1.72 | 1.381 | 1.122
x1 = 0.388 | 1.53 | 1.264 | –
x1 = 0.4012 | 1.431 | 1.162 | 0.957
x1 = 0.5 | 1.19 | 0.976 | 0.816
x1 = 0.5146 | 1.18 | 0.9969 | –
x1 = 0.6008 | 0.996 | 0.829 | 0.697
x1 = 0.6173 | 0.9476 | 0.8283 | –
x1 = 0.6995 | 0.819 | 0.693 | 0.592
x1 = 0.7066 | 0.7962 | 0.6999 | –
x1 = 0.8002 | 0.68 | 0.583 | 0.505
x1 = 0.8075 | 0.6516 | 0.5757 | –
x1 = 0.8845 | 0.559 | 0.4945 | –
x1 = 0.8997 | 0.574 | 0.498 | 0.435

O=C(O)C(Cl)(Cl)Cl + CCCCOC(C)=O
323.15 K, 101 kPa
Settings | viscosity [mPa·s]
x2 = 0.104 | 4.361
x2 = 0.187 | 3.749
x2 = 0.3013 | 2.85
x2 = 0.379 | 2.406
x2 = 0.494 | 1.798
x2 = 0.584 | 1.419
x2 = 0.7106 | 0.996
x2 = 0.7901 | 0.81
x2 = 0.929 | 0.588

O=C(O)C(Cl)(Cl)Cl + CC(=O)c1ccccc1
298.15 K, 101 kPa
Settings | viscosity [mPa·s]
x1 = 0.0896 | 2.112
x1 = 0.14 | 2.402
x1 = 0.2121 | 2.931
x1 = 0.2939 | 3.735
x1 = 0.409 | 5.54
x1 = 0.4876 | 7.349
x1 = 0.5794 | 9.33
x1 = 0.6815 | 11.15

CCCCN + CO
viscosity [mPa·s]
Settings | 298.15 K | 303.15 K | 313.15 K | 323.15 K
100 kPa, x2 = 0.1 | 0.505 | – | – | –
100 kPa, x2 = 0.203 | 0.552 | – | – | –
100 kPa, x2 = 0.299 | 0.599 | – | – | –
100 kPa, x2 = 0.399 | 0.653 | – | – | –
100 kPa, x2 = 0.501 | 0.707 | – | – | –
100 kPa, x2 = 0.598 | 0.747 | – | – | –
100 kPa, x2 = 0.697 | 0.761 | – | – | –
100 kPa, x2 = 0.796 | 0.732 | – | – | –
100 kPa, x2 = 0.9 | 0.65 | – | – | –
101 kPa, x2 = 0.1159 | – | 0.47 | 0.409 | 0.357
101 kPa, x2 = 0.2309 | – | 0.494 | 0.425 | 0.369
101 kPa, x2 = 0.3289 | – | 0.518 | 0.439 | 0.377
101 kPa, x2 = 0.426 | – | 0.549 | 0.458 | 0.386
101 kPa, x2 = 0.5325 | – | 0.584 | 0.482 | 0.397
101 kPa, x2 = 0.6186 | – | 0.607 | 0.498 | 0.405
101 kPa, x2 = 0.7296 | – | 0.617 | 0.508 | 0.411
101 kPa, x2 = 0.8167 | – | 0.602 | 0.502 | 0.41
101 kPa, x2 = 0.9076 | – | 0.562 | 0.481 | 0.408

CCCCN + CCCCCCCCCCO
viscosity [mPa·s], 101.33 kPa
Settings | x1 = 0.1009 | x1 = 0.1875 | x1 = 0.2926 | x1 = 0.4082 | x1 = 0.4885 | x1 = 0.5888 | x1 = 0.7198 | x1 = 0.8119 | x1 = 0.9029
303.15 K | 7.619 | 6.568 | 5.323 | 4.051 | 3.232 | 2.336 | 1.398 | 0.9303 | 0.6273
313.15 K | 5.926 | 5.059 | 4.058 | 3.072 | 2.462 | 1.813 | 1.151 | 0.8181 | 0.5744

CC(=O)[O-].CCn1cc[n+](CC)c1 + O
viscosity [mPa·s], 100 kPa
Settings | x2 = 0.09432 | x2 = 0.2079 | x2 = 0.3498 | x2 = 0.453 | x2 = 0.5329
298.15 K | 129.4 | 120.3 | 79.4 | 62.7 | 50.4
323.15 K | 38.2 | 36.6 | 26.3 | 21.5 | 17.9

CCCCCCCCCC(=O)OCC + CCCO
viscosity [mPa·s], 100 kPa
Settings | x1 = 0.1002 | x1 = 0.2005 | x1 = 0.2999 | x1 = 0.4 | x1 = 0.4999 | x1 = 0.601 | x1 = 0.7 | x1 = 0.7998 | x1 = 0.9011
293.15 K | 2.031 | 1.963 | 1.956 | 1.986 | 2.013 | 2.057 | 2.123 | 2.176 | 2.25
298.15 K | 1.809 | 1.759 | 1.757 | 1.786 | 1.814 | 1.854 | 1.912 | 1.97 | 2.029
303.15 K | 1.618 | 1.586 | 1.587 | 1.611 | 1.642 | 1.681 | 1.74 | 1.78 | 1.845
308.15 K | 1.456 | 1.433 | 1.438 | 1.461 | 1.493 | 1.53 | 1.578 | 1.623 | 1.681
313.15 K | 1.315 | 1.299 | 1.309 | 1.333 | 1.364 | 1.403 | 1.446 | 1.486 | 1.538
318.15 K | 1.192 | 1.183 | 1.196 | 1.22 | 1.25 | 1.285 | 1.33 | 1.368 | 1.415
